Reference: patent publication US7807678B2, “Peptidomimetics of biologically active metallopeptides” (Palatin Technologies, Inc., priority 2001, dated 2010)

How the values were obtained:
Settings in all cases: 1 μM compound; inhibition of 125I-NDP-α-MSH binding; mean of triplicates; results less than 0% reported as 0%
[1] = target: T1, MC1-R (B-16 mouse melanoma cells) (Mus musculus, UniProt Q01727); experiment: Competitive inhibition binding assay, 125I-NDP-α-MSH, MC1-R
T1 construct: B-16 mouse melanoma cells (containing MC1-R); endogenous in cells; host or cells: B-16 mouse melanoma cells
T1 sequence (Q01727 whole entry): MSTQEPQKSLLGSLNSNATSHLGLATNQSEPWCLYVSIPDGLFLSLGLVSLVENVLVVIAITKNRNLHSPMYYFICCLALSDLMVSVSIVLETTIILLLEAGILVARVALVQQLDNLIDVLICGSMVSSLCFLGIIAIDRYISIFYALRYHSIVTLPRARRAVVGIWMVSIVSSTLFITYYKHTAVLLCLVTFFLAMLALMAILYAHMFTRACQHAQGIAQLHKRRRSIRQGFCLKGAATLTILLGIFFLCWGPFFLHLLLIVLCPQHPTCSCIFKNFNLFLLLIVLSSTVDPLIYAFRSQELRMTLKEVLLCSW
Experimental: (§1) The competitive inhibition binding assay was conducted using membranes prepared from hMC3-R, hMC4-R, hMC5-R, and B-16 mouse melanoma cells (containing MC1-R) using 0.4 nM ^125I-NDP-α-MSH (New England Nuclear, Boston, Mass., USA) in 50 mM HEPES buffer containing 1 mM MgCl2, 2 mM CaCl2, and 5 mM KCl, at pH 7.2. The assay tube also contained a chosen concentration of the test peptidomimetic of this invention, generally 1 μM, for determining its efficacy in inhibiting the binding of ^125I-NDP-α-MSH to its receptor.
(§2) Incubation was for 90 minutes at room temperature, after which the assay mixture was filtered and the membranes washed three times with ice cold buffer. The filter was dried and counted in a gamma counter for remaining radioactivity bound to the membranes. 100% specific binding was defined as the difference in radioactivity (cpm) bound to cell membranes in the absence and presence of 1 μM α-MSH. […] Each assay was conducted in triplicate and the actual mean values are described.

MC3-R = MC3-R (Homo sapiens, UniProt P41968); experiment: Competitive inhibition binding assay, 125I-NDP-α-MSH, MC3-R; parameters: expressed in transfected cells
Sequence of MC3-R (P41968 whole entry): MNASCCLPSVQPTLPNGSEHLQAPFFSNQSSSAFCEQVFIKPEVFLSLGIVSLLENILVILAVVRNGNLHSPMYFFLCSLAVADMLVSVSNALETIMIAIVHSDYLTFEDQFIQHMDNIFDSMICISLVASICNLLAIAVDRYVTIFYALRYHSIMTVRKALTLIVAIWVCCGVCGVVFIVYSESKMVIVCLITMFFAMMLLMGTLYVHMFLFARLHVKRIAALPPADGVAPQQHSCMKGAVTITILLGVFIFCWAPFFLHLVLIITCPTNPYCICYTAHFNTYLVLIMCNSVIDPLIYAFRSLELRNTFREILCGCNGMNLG
Experimental: as §1, §2

MC4-R = MC4-R (Homo sapiens, UniProt P32245); experiment: Competitive inhibition binding assay, 125I-NDP-α-MSH, MC4-R; parameters: expressed in transfected cells
Sequence of MC4-R (P32245 whole entry): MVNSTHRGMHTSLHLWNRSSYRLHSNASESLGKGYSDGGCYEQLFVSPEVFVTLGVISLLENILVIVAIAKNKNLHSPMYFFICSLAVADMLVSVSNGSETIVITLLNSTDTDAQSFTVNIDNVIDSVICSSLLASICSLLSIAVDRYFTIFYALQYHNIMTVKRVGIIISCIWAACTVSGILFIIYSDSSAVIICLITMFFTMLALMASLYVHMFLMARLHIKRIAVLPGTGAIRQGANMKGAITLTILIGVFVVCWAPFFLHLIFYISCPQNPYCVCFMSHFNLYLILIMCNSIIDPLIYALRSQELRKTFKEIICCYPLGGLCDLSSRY
Experimental: as §1, §2

MC5-R = MC5-R (Homo sapiens, UniProt P33032); experiment: Competitive inhibition binding assay, 125I-NDP-α-MSH, MC5-R; parameters: expressed in transfected cells
Sequence of MC5-R (P33032 whole entry): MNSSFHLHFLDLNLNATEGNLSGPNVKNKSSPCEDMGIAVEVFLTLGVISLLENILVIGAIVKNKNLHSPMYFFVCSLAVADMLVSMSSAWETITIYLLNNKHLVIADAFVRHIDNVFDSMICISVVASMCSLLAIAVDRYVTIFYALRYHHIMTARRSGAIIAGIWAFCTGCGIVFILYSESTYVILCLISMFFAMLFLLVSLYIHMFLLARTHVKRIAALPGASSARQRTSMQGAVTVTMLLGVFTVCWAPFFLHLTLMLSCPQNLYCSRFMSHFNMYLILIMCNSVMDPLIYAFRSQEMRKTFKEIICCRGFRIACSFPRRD
Experimental: as §1, §2

SMILES: NCCCC[C@H]1C(=O)N2C(CC[C@@H]2COc2ccc3ccccc3c2)N1C(=O)[C@@H](Cc1ccccc1Cl)NC(=O)[C@@H]1CC[C@H](c2ccccc2)N1 (stereo partly shown) [Example 85]
- Inhibition at 1 μM MC1-R [1]: 4%
- Inhibition at 1 μM MC3-R (MC3-R): 0%
- Inhibition at 1 μM MC4-R (MC4-R): 44%
- Inhibition at 1 μM MC5-R (MC5-R): 13%

SMILES: CCCCCCC(=O)N[C@@H](COCc1ccccc1)C(=O)N[C@H](Cc1ccccc1Cl)C(=O)N1C2CC[C@H](COc3ccc4ccccc4c3)N2C(=O)[C@@H]1CCCCN (stereo partly shown) [Example 86]
- Inhibition at 1 μM MC1-R [1]: 71%
- Inhibition at 1 μM MC3-R (MC3-R): 30%
- Inhibition at 1 μM MC4-R (MC4-R): 82%
- Inhibition at 1 μM MC5-R (MC5-R): 47%

SMILES: NCCCC[C@H]1C(=O)N2C(CC[C@@H]2COc2ccc3ccccc3c2)N1C(=O)[C@@H](Cc1ccccc1Cl)NC(=O)[C@H]1NCCc2ccccc21 (stereo partly shown) [Example 87]
- Inhibition at 1 μM MC1-R [1]: 66%
- Inhibition at 1 μM MC3-R (MC3-R): 8%
- Inhibition at 1 μM MC4-R (MC4-R): 57%
- Inhibition at 1 μM MC5-R (MC5-R): 46%

SMILES: NCCCC[C@H]1C(=O)N2C(CC[C@@H]2COc2ccc3ccccc3c2)N1C(=O)[C@@H](Cc1ccccc1Cl)NC(=O)[C@@H]1NCCc2ccccc21 (stereo partly shown) [Example 88]
- Inhibition at 1 μM MC1-R [1]: 48%
- Inhibition at 1 μM MC3-R (MC3-R): 0%
- Inhibition at 1 μM MC4-R (MC4-R): 37%
- Inhibition at 1 μM MC5-R (MC5-R): 20%

SMILES: NCCCC[C@H]1C(=O)N2C(CC[C@@H]2COc2ccc3ccccc3c2)N1C(=O)[C@@H](Cc1ccccc1Cl)NC(=O)C1(N)CCc2ccccc2C1 (stereo partly shown) [Example 89]
- Inhibition at 1 μM MC1-R [1]: 24%
- Inhibition at 1 μM MC3-R (MC3-R): 0%
- Inhibition at 1 μM MC4-R (MC4-R): 34%
- Inhibition at 1 μM MC5-R (MC5-R): 22%

SMILES: NCCCC[C@H]1C(=O)N2C(CC[C@@H]2COc2ccc3ccccc3c2)N1C(=O)[C@@H](Cc1ccccc1Cl)NC(=O)[C@@H](N)C1Cc2ccccc2C1 (stereo partly shown) [Example 90]
- Inhibition at 1 μM MC1-R [1]: 10%
- Inhibition at 1 μM MC3-R (MC3-R): 0%
- Inhibition at 1 μM MC4-R (MC4-R): 12%
- Inhibition at 1 μM MC5-R (MC5-R): 46%

SMILES: NCCCC[C@H]1C(=O)N2C(CC[C@@H]2COc2ccc3ccccc3c2)N1C(=O)[C@@H](Cc1ccccc1Cl)NC(=O)[C@@H]1C[C@H](Oc2ccc3ccccc3c2)CN1 (stereo partly shown) [Example 91]
- Inhibition at 1 μM MC1-R [1]: 21%
- Inhibition at 1 μM MC3-R (MC3-R): 0%
- Inhibition at 1 μM MC4-R (MC4-R): 0%
- Inhibition at 1 μM MC5-R (MC5-R): 17%

SMILES: NCCCC[C@H]1C(=O)N2C(CC[C@@H]2COc2ccc3ccccc3c2)N1C(=O)[C@@H](Cc1ccccc1Cl)NC(=O)[C@@H]1C[C@H](Oc2ccccc2)CN1 (stereo partly shown) [Example 92]
- Inhibition at 1 μM MC1-R [1]: 7%
- Inhibition at 1 μM MC3-R (MC3-R): 0%
- Inhibition at 1 μM MC4-R (MC4-R): 22%
- Inhibition at 1 μM MC5-R (MC5-R): 21%

SMILES: NCCCC[C@H]1C(=O)N2C(CC[C@@H]2COc2ccc3ccccc3c2)N1C(=O)[C@@H](Cc1ccccc1Cl)NC(=O)[C@H]1Cc2ccccc2CN1 (stereo partly shown) [Example 93]
- Inhibition at 1 μM MC1-R [1]: 47%
- Inhibition at 1 μM MC3-R (MC3-R): 12%
- Inhibition at 1 μM MC4-R (MC4-R): 79%
- Inhibition at 1 μM MC5-R (MC5-R): 18%

SMILES: NCCCC[C@H]1C(=O)N2C(CC[C@@H]2COc2ccc3ccccc3c2)N1C(=O)[C@@H](Cc1ccccc1Cl)NC(=O)[C@@H]1Cc2ccccc2N1 (stereo partly shown) [Example 95]
- Inhibition at 1 μM MC1-R [1]: 34%
- Inhibition at 1 μM MC3-R (MC3-R): 0%
- Inhibition at 1 μM MC4-R (MC4-R): 47%
- Inhibition at 1 μM MC5-R (MC5-R): 14%

SMILES: NCCCC[C@H]1C(=O)N2C(CC[C@@H]2COc2ccc3ccccc3c2)N1C(=O)[C@@H](Cc1ccccc1Cl)NC(=O)C1(N)CCc2ccccc21 (stereo partly shown) [Example 96]
- Inhibition at 1 μM MC1-R [1]: 39%
- Inhibition at 1 μM MC3-R (MC3-R): 0%
- Inhibition at 1 μM MC4-R (MC4-R): 12%
- Inhibition at 1 μM MC5-R (MC5-R): 17%

SMILES: [2H]NC(Cc1cnc[nH]1)C(=O)NC(Cc1ccccc1)C(=O)N1C(CCCNC(=N)N)C(=O)N2C(COc3ccc4ccccc4c3)CCC21 (stereo not shown) [Example 97]
- Inhibition at 1 μM MC1-R [1]: 99%
- Inhibition at 1 μM MC3-R (MC3-R): 30%
- Inhibition at 1 μM MC4-R (MC4-R): 69%
- Inhibition at 1 μM MC5-R (MC5-R): 28%

SMILES: NCCCC[C@H]1C(=O)N2C(CC[C@@H]2COc2ccc3ccccc3c2)N1C(=O)[C@@H](Cc1ccccc1Cl)NCc1ccccc1 (stereo partly shown) [Example 102]
- Inhibition at 1 μM MC1-R [1]: 11%
- Inhibition at 1 μM MC3-R (MC3-R): 13%
- Inhibition at 1 μM MC4-R (MC4-R): 16%
- Inhibition at 1 μM MC5-R (MC5-R): 14%

SMILES: NCCCCC1C(=O)N2C(COc3ccccc3)CCC2N1C(=O)C(N)Cc1ccc(Cl)cc1 (stereo not shown) [Example 103]
- Inhibition at 1 μM MC1-R [1]: 9%
- Inhibition at 1 μM MC3-R (MC3-R): 0%
- Inhibition at 1 μM MC4-R (MC4-R): 0%
- Inhibition at 1 μM MC5-R (MC5-R): 0%

SMILES: NCCCCC1C(=O)N2C(COc3ccccc3)CCC2N1C(=O)C(N)Cc1ccccc1Cl (stereo not shown) [Example 104]
- Inhibition at 1 μM MC1-R [1]: 0%
- Inhibition at 1 μM MC3-R (MC3-R): 4%
- Inhibition at 1 μM MC4-R (MC4-R): 0%
- Inhibition at 1 μM MC5-R (MC5-R): 0%

SMILES: NCCCC[C@H]1C(=O)N2C(CC[C@@H]2COc2ccccc2)N1C(=O)[C@@H](Cc1ccc(Cl)cc1)NC(=O)[C@@H]1Cc2ccccc2CN1 (stereo partly shown) [Example 106]
- Inhibition at 1 μM MC1-R [1]: 81%
- Inhibition at 1 μM MC3-R (MC3-R): 19%
- Inhibition at 1 μM MC4-R (MC4-R): 51%
- Inhibition at 1 μM MC5-R (MC5-R): 25%
